Assay results taken from patent US10072001B2, “Tank-binding kinase inhibitor compounds” (Gilead Sciences, Inc., priority 2014, dated 2018).

What was measured:
IKKε = IKKε (Homo sapiens (Human), UniProt Q14164); assay: TR-FRET kinase assay, IKKε; type: biochemical; conditions: full length recombinant IKKε 0.3 nM, 2x Km ATP, 1 μM peptide, 240 min at 25° C.; geometric mean of minimum four determinations
From the text: Biological Assay for TBK1 and IKKs:

TBK1 = TBK1 (Homo sapiens (Human), UniProt Q9UHD2); assay: TR-FRET kinase assay, TBK1; conditions: read-out: TBK1-IC50; full length recombinant TBK1 2.5 nM, 2x Km ATP, 1 μM peptide, 240 min at 25° C.; geometric mean of minimum four determinations
Sequence of TBK1 (Q9UHD2 whole entry): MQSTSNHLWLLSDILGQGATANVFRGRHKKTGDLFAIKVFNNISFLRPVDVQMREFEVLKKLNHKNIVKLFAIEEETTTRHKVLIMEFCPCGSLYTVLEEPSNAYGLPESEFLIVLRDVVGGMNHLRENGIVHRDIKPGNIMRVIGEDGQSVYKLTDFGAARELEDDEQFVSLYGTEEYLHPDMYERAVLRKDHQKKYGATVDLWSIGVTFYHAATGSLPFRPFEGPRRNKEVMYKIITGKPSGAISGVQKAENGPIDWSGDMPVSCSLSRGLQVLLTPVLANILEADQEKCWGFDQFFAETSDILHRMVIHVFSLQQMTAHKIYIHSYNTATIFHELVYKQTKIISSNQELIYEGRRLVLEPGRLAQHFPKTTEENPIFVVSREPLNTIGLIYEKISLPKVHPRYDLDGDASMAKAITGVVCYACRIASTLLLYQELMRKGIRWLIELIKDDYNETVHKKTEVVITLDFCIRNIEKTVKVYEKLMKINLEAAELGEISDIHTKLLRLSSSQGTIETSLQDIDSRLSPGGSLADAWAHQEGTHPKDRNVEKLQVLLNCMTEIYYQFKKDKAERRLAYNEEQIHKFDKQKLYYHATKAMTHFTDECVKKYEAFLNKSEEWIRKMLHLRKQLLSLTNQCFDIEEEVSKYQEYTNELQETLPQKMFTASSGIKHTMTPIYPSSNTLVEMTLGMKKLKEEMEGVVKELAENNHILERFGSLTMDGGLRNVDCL

Sequence of IKKε (Q14164 whole entry): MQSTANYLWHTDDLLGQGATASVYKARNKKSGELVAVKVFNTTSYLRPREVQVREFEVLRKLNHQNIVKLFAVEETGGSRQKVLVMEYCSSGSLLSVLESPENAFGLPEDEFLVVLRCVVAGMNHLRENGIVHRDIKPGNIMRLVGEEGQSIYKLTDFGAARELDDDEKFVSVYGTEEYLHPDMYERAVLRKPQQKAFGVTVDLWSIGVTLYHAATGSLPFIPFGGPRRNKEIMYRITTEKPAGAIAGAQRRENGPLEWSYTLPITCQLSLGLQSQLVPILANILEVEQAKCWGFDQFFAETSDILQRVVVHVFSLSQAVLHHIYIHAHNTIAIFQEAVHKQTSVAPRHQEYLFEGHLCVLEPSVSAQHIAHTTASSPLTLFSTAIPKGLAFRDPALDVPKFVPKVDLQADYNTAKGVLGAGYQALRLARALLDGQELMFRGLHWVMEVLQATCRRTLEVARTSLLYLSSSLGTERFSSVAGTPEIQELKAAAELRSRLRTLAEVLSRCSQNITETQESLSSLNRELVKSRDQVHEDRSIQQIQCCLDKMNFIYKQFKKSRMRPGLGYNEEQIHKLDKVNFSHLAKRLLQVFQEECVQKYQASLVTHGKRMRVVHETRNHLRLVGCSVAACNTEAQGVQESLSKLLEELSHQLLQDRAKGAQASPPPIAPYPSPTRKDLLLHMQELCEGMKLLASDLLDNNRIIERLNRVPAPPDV

IC50 (IKKε) [nM] | IC50 (TBK1) [nM] | SMILES
115 | 15.6 | CC(C)(O)c1ccc(-c2cc3c(-c4ccc(OC5CCOCC5)c(C#N)c4)c(F)cnc3[nH]2)cc1 [Example 173, 5-(5-fluoro-2-(4-(2-hydroxypropan-2-yl)phenyl)-1H-pyrrolo[2,3-b]pyridin-4-yl)-2-((tetrahydro-2H-pyran-4-yl)oxy)benzonitrile]
6.9 | 1.02 | COc1cc(-c2cc3c(-c4ccc(OC5CCOCC5)c(C#N)c4)ncnc3[nH]2)ccc1N1CCN(C2COC2)CC1 [Example 143, 5-(6-(3-methoxy-4-(4-(oxetan-3-yl)piperazin-1-yl)phenyl)-7H-pyrrolo[2,3-d]pyrimidin-4-yl)-2-((tetrahydro-2H-pyran-4-yl)oxy)benzonitrile]
9.58 | 4.64 | N#Cc1cc(-c2ncnc3[nH]c(-c4ccc(Cl)cc4)cc23)ccc1OC1CCN(C(=O)CO)CC1 [Example 127, 5-(6-(4-chlorophenyl)-7H-pyrrolo[2,3-d]pyrimidin-4-yl)-2-((1-(2-hydroxyacetyl)piperidin-4-yl)oxy)benzonitrile]
18.4 | 5.96 | N#Cc1cc(-c2ccnc3[nH]c(-c4ccc(N5CCOCC5)cc4)cc23)ccc1OC1CCN(C(=O)CN)CC1 [Example 152, 2-((1-(2-aminoacetyl)piperidin-4-yl)oxy)-5-(2-(4-morpholinophenyl)-1H-pyrrolo[2,3-b]pyridin-4-yl)benzonitrile]
18.9 | 2.63 | N#Cc1cc(-c2ncnc3[nH]c(-c4cccc(N5CCOCC5)c4)cc23)ccc1OC1CCOCC1 [Example 103, 5-(6-(3-morpholinophenyl)-7H-pyrrolo[2,3-d]pyrimidin-4-yl)-2-((tetrahydro-2H-pyran-4-yl)oxy)benzonitrile]
1000 | 1000 | COc1ccc(C#N)cc1-c1ncnc2[nH]c(-c3ccc(N4CCOCC4)cc3)cc12 [Example 133, 4-methoxy-3-(6-(4-morpholinophenyl)-7H-pyrrolo[2,3-d]pyrimidin-4-yl)benzonitrile]
20.8 | 6.86 | N#Cc1cc(-c2ccnc3[nH]c(-c4ccc(N5CCOCC5)cc4)cc23)ccc1O[C@@H]1CCNC1 [Example 14, (R)-5-(2-(4-morpholinophenyl)-1H-pyrrolo[2,3-b]pyridin-4-yl)-2-(pyrrolidin-3-yloxy)benzonitrile]
12.7 | 5.09 | N#Cc1cc(-c2ncnc3[nH]c(-c4ccc5c(c4)NCCO5)cc23)ccc1OC1CCOCC1 [Example 191, 5-(6-(3,4-dihydro-2H-benzo[b][1,4]oxazin-6-yl)-7H-pyrrolo[2,3-d]pyrimidin-4-yl)-2-((tetrahydro-2H-pyran-4-yl)oxy)benzonitrile]
85 | 19.6 | N#Cc1cc(-c2ncnc3[nH]c(-c4ccc(N5CCOCC5)cc4)cc23)ccc1CN1CCOCC1 [Example 112, 2-(morpholinomethyl)-5-(6-(4-morpholinophenyl)-7H-pyrrolo[2,3-d]pyrimidin-4-yl)benzonitrile]
2.62 | 0.9 | COc1cc(-c2cc3c(-c4ccc(OC5CCN(C(=O)CO)CC5)c(C#N)c4)ncnc3[nH]2)ccc1N1CCOCC1 [Example 125, 2-((1-(2-hydroxyacetyl)piperidin-4-yl)oxy)-5-(6-(3-methoxy-4-morpholinophenyl)-7H-pyrrolo[2,3-d]pyrimidin-4-yl)benzonitrile]
1.03 | 0.644 | N#Cc1cc(-c2ncnc3[nH]c(-c4ccc(N5CCNCC5)cc4)cc23)ccc1OC1CCOCC1 [Example 200, 5-(6-(4-(piperazin-1-yl)phenyl)-7H-pyrrolo[2,3-d]pyrimidin-4-yl)-2-((tetrahydro-2H-pyran-4-yl)oxy)benzonitrile]
1.21 | 1.85 | CN1CCN(c2ccc(-c3nc4c(-c5ccc(OC6CCOCC6)c(C#N)c5)ccnc4[nH]3)cc2)CC1 [Example 306, 5-(2-(4-(4-methylpiperazin-1-yl)phenyl)-3H-imidazo[4,5-b]pyridin-7-yl)-2-((tetrahydro-2H-pyran-4-yl)oxy)benzonitrile]
8.18 | 3.84 | CC(C)(O)c1ccc(-c2cc3c(-c4cc(C#N)c(OC5CCOCC5)cn4)ccnc3[nH]2)cc1 [Example 170, 2-(2-(4-(2-Hydroxypropan-2-yl)phenyl)-1H-pyrrolo[2,3-b]pyridin-4-yl)-5-((tetrahydro-2H-pyran-4-yl)oxy)isonicotinonitrile]
1.8 | 1.78 | N#Cc1cc(-c2ncnc3[nH]c(-c4ccc(C(=O)NC5COC5)cc4)cc23)ccc1OC1CCN(C(=O)CO)CC1 [Example 163, 4-(4-(3-Cyano-4-((1-(2-hydroxyacetyl)piperidin-4-yl)oxy)phenyl)-7H-pyrrolo[2,3-d]pyrimidin-6-yl)-N-(oxetan-3-yl)benzamide]
15.8 | 2.02 | N#Cc1cc(-c2ccnc3[nH]c(-c4ccc(N5CCN(C(=O)CO)CC5)cc4)cc23)ccc1OC1CCOCC1 [Example 56, 5-(2-(4-(4-(2-hydroxyacetyl)piperazin-1-yl)phenyl)-1H-pyrrolo[2,3-b]pyridin-4-yl)-2-((tetrahydro-2H-pyran-4-yl)oxy)benzonitrile]
63 | 26.8 | N#Cc1cc(-c2ccnc3[nH]c(-c4ccc(N5CCOCC5)cc4)cc23)ccc1O[C@@H]1CCN(C2COC2)C1 [Example 87, (R)-5-(2-(4-morpholinophenyl)-1H-pyrrolo[2,3-b]pyridin-4-yl)-2-((1-(oxetan-3-yl)pyrrolidin-3-yl)oxy)benzonitrile]
5.39 | 1.33 | N#Cc1cc(-c2ncnc3[nH]c(-c4ccc(C(=O)N5CCCC5)cc4)cc23)ccc1OC1CCOCC1 [Example 185, 5-(6-(4-(pyrrolidine-1-carbonyl)phenyl)-7H-pyrrolo[2,3-d]pyrimidin-4-yl)-2-((tetrahydro-2H-pyran-4-yl)oxy)benzonitrile]
44.5 | 63.8 | CC(C)NC(=O)c1cc2c(-c3ccc(OC4CCOCC4)c(C#N)c3)ccnc2[nH]1 [Example 60, 4-(3-cyano-4-((tetrahydro-2H-pyran-4-yl)oxy)phenyl)-N-isopropyl-1H-pyrrolo[2,3-b]pyridine-2-carboxamide]
262 | 383 | N#Cc1cc(-c2ccnc3[nH]c(C(=O)N4CCCC4)cc23)ccc1OC1CCOCC1 [Example 117, 5-(2-(pyrrolidine-1-carbonyl)-1H-pyrrolo[2,3-b]pyridin-4-yl)-2-((tetrahydro-2H-pyran-4-yl)oxy)benzonitrile]
3.9 | 5.88 | N#Cc1cc(-c2ncnc3[nH]c(-c4ccc(OCCN5CCCC5)cc4)cc23)ccc1OCC1CC1 [Example 138, 2-(cyclopropylmethoxy)-5-(6-(4-(2-(pyrrolidin-1-yl)ethoxy)phenyl)-7H-pyrrolo[2,3-d]pyrimidin-4-yl)benzonitrile]
> 1000 | 2.84 | CS(=O)(=O)N1CCN(c2ccc(-c3cc4c(-c5ccc(OC6CCOCC6)c(C#N)c5)ccnc4[nH]3)cc2)CC1 [Example 55, 5-(2-(4-(4-(methylsulfonyl)piperazin-1-yl)phenyl)-1H-pyrrolo[2,3-b]pyridin-4-yl)-2-((tetrahydro-2H-pyran-4-yl)oxy)benzonitrile]
96 | 37.1 | N#Cc1cc(-c2ncnc3[nH]c(-c4ccc(C5CCN(CC(F)(F)F)CC5)cc4)nc23)ccc1OC1CCNCC1 [Example 261, 2-(piperidin-4-yloxy)-5-(8-(4-(1-(2,2,2-trifluoroethyl)piperidin-4-yl)phenyl)-9H-purin-6-yl)benzonitrile]
> 1000 | 16.8 | N#Cc1cc(-c2ccnc3[nH]c(-c4ccc(N5CCOCC5)cc4)cc23)ccc1OCC1CC1 [Example 80, 2-(cyclopropylmethoxy)-5-(2-(4-morpholinophenyl)-1H-pyrrolo[2,3-b]pyridin-4-yl)benzonitrile]
22.5 | 10.6 | CC(C)(O)c1cccc(-c2cc3c(-c4ccc(OC5CCOCC5)c(C#N)c4)ccnc3[nH]2)c1 [Example 68, 5-(2-(3-(2-hydroxypropan-2-yl)phenyl)-1H-pyrrolo[2,3-b]pyridin-4-yl)-2-((tetrahydro-2H-pyran-4-yl)oxy)benzonitrile]
32.9 | 3.55 | COc1cc(-c2cc3c(-c4ccc(OC5CCNCC5(F)F)c(C#N)c4)ncnc3[nH]2)ccc1N1CCN(C2COC2)CC1 (stereo not shown) [Example 140, 2-((3,3-difluoropiperidin-4-yl)oxy)-5-(6-(3-methoxy-4-(4-(oxetan-3-yl)piperazin-1-yl)phenyl)-7H-pyrrolo[2,3-d]pyrimidin-4-yl)benzonitrile]
6.84 | 3.43 | N#Cc1cc(-c2ccnc3[nH]c(-c4ccc(N5CCOCC5)cc4)cc23)ncc1OC1CCOCC1 [Example 26, 2-(2-(4-morpholinophenyl)-1H-pyrrolo[2,3-b]pyridin-4-yl)-5-((tetrahydro-2H-pyran-4-yl)oxy)isonicotinonitrile]
> 1000 | 89.8 | COc1ccc(-c2ccnc3[nH]c(-c4ccc(N5CCOCC5)cc4)cc23)cc1C#N [Example 34, 2-methoxy-5-(2-(4-morpholinophenyl)-1H-pyrrolo[2,3-b]pyridin-4-yl)benzonitrile]
> 1000 | > 1000 | CC(C)(C)OC(=O)n1ccc2cc(-c3cc4c(-c5ccc(OC6CCOCC6)c(C#N)c5)ccnc4[nH]3)ccc21 [Example 44, tert-butyl 5-(4-(3-cyano-4-((tetrahydro-2H-pyran-4-yl)oxy)phenyl)-1H-pyrrolo[2,3-b]pyridin-2-yl)-1H-indole-1-carboxylate]
4.71 | 3.68 | Cn1cc(-c2cc3c(-c4ccc(OC5CCOCC5)c(C#N)c4)ccnc3[nH]2)cn1 [Example 84, 5-(2-(1-methyl-1H-pyrazol-4-yl)-1H-pyrrolo[2,3-b]pyridin-4-yl)-2-((tetrahydro-2H-pyran-4-yl)oxy)benzonitrile]
